Data published in patent publication US20060125896A1, “Ink tank, ink jet recording method, and ink tank regeneration process” (Canon Kabushiki Kaisha, priority 2004, published 2006).

Experiment: Solubility in pure water with pH 7 at 25° C.
Format: physicochemical
Conditions: pH 7, 25° C., compared with the coloring material
Description: In order to inspect depositing quality due to the influence of pH, the solubility in pure water with pH7 at 25° C. has been compared between the compound represented by the general formula (I) or a salt thereof and the compound represented by the general formula (II) to find that the compound represented by the general formula (II) has a lower solubility than the compound represented by the general formula (I) or a salt thereof. This fact also has supported that the compound represented by the general formula (II) has a high depositing quality.

In the case of `O=C([O-])c1ccccc1Nc1nc(O)nc(Nc2ccccc2C(=O)[O-])n1.[Na+].[Na+]` [Exemplified Compound B], the “solubility in pure water” value is reported as “lower than the solubility of Exemplified Compound A”.
